Results on four compounds are retold here after patent US8975249B2, “Heterocyclic compounds and uses thereof” (Celgene Avilomics Research, Inc., priority 2010, dated 2015).

What is called pIC50 is the IC50 on a negative log10 scale, so that one unit is a factor of ten. For orientation: pEC50 means −log10 of the EC50, conventionally taken in molar units. By GI50 is commonly meant the concentration that inhibits growth by half.

One experiment deals with EGFR (WT) (Homo sapiens (Human), UniProt P00533). Briefly: Omnia biochemical assay, EGFR-WT active enzyme. The settings on record: [EGFR-WT]=5 nM, [ATP]=15 uM, 30 min pre-incubation. How it is done: Kinase reactions were started with the addition of 45 μL of the ATP/Tyr-Sox peptide substrate mix and monitored every 71 seconds for 60 minutes at λex360/λem485 in a Synergy^4 plate reader from BioTek (Winooski, Vt.).
The compound numbers correspond to the compound numbers in Table 1.

A further experiment deals with WT EGFR (A431 cells) (Homo sapiens (Human), UniProt P00533). Briefly: Phospho-EGFR signaling immunoblot in A431 cells (WT EGFR). In kind it is cell-based. The settings on record: 1 hr treatment, EGF stimulated, phospho-EGFR (Y1068). The protocol: (§1) A431 human epidermoid carcinoma, H1975 human NSCLC and HCC827 human NSCLC adenocarcinoma cells were obtained from the American Type Culture Center (Manassas, Va.). A431 cells were grown in DMEM (Invitrogen, Carlsbad, Calif.) supplemented with 10% FBS (HyClone, South Logan, Utah) and 1% Penicillin-Streptomycin (P/S, Lonza, Walkersville, Md.).
(§2) All primary antibodies were obtained from Cell Signaling (Danvers, Mass.) and used at 1:1000. Secondary antibodies were used at 1:10,000. Goat anti-mouse IgG IRDye 800CW antibody was obtained from LiCor Biosciences (Lincoln, Nebr.) and goat anti-rabbit IgG Alexa Fluor 680 was obtained from Invitrogen.
(§3) Cells were grown in 12-well plates (Corning, Coring, N.Y.) to 90% confluence and then incubated in low-serum (0.1% FBS) media for 16-18 hr. […] A431 cells were then stimulated with 50 ng/ml EGF (Peprotech, Rocky Hill, N.J.) for 15 min. After treatment, cell monolayers were washed with cold PBS (Invitrogen) and immediately lysed by scrapping into 60 uL cold Cell Extraction Buffer (Invitrogen) supplemented with Complete Protease inhibitors (Roche, Indianapolis, Ind.) and PhosphoSTOP (Roche) phosphatase inhibitors.
(§4) Phospho-protein signals were quantitated using Odyssey Infrared Imaging (Li-Cor Biosciences).
(§5) To assess phosphor-EGFR signaling, blots were probed with rabbit anti-Phospho-EGFR (Y1068) and mouse total anti-EGFR antibodies. Phospho-EGFR signal was normalized to total EGFR expression for each sample. […] Normalized data was fitted using a sigmoidal curve analysis program (Graph Pad Prism version 5) with variable Hill slope to determine the EC50 values.
(§6) The compound numbers recited in Table 4 correspond to the compound numbers in Table 1.
For orientation: Immunoblotting shows a protein as a band on a membrane.

The target in experiment [1] is EGFR double mutation L858R/T790M (H1975 cells) (Homo sapiens (Human), UniProt P00533, L858R/T790M). Briefly: Phospho-EGFR signaling immunoblot in H1975 cells. In kind it is cell-based. How it is done:
as §1, §2, §3, §4, §5, §6

Experiment [2] deals with EGFR Deletion/T790M Mutation (H1975 cells) (Homo sapiens (Human), UniProt P00533, L858R/T790M). The experiment is described as follows: Washout experiment in H1975 cells (pEGFR after compound removal). The settings on record: 500 nM for 1 hr, at 24 h after compound removal. In kind it is cell-based. The protocol: Washout Experiment in H1975 Cells Containing EGFR Deletion/T790M Mutation
Cells were plated in Growth Media supplemented with 10% FBS and 1% P/S at a density of 2.0×10^5 cells per well in 12 well tissue culture plates. Cells were allowed to settle down for 4 hrs and then maintained in low-serum (0.1% FBS) media overnight.
The following morning the media was removed and the cells were treated with 500 nM test compound in low-serum media for 1 hr. The cells were washed free of compound 2× with PBS (Invitrogen). One set of cells were immediately lysed as indicated above as the 0 hr time point. The remaining cells were incubated with complete RPMI-1640 growth media (10% FBS) for 1, 3, 6 and 24 hr. For the first 1 hr, cells were washed 2× with PBS every 30 min. DMSO (0.5%) controls were collected at the 0, 3, 6 and 24 hr time points.

A further experiment has as its system H1975 tumor. The experiment is described as follows: H1975 tumor in vivo study. The settings on record: female nu/nu mice, H1975 subcutaneous, intraperitoneal 25 mg/kg daily for 21 days, determined at 15 days. How it is done:
H1975 Tumor In Vivo Study
Female nu/nu mice were implanted with 1×10^7 H1975 tumor cells in 50% Matrigel subcutaneously (0.2 ml injection volume) in the flank. Tumor measurements were recorded three times per week. Tumors were pair matched when they reached an average size of 100-150 mg. Group size was 10 mice. Test compound was administered intraperitoneal, 25 mg/kg daily for 21 days. % Tumor inhibition values were determined at 15 days, the time at which the control group reached a maximum tumor volume. Tumor volume was followed until tumors reached 1500 mm^3 or 60 days.

In experiment [3] the test system is H1975 cells (EGFR L858R/T790M). Briefly: Cell proliferation (CellTiter Glo), H1975 cells. In general terms: In ATP-based viability assays light output follows the ATP content of the culture.
Method: (§7) Cells were plated in Growth Media supplemented with 5% FBS and 1% P/S at a density of 3,000 cells per well in 96 well tissue culture plates (Corning). […] Growth inhibition (GI50) values were determined by Graph Pad Prism.
Experiment [4] has as its system HCC827 cells (EGFR delE746-A750). The experiment is described as follows: Cell proliferation (CellTiter Glo), HCC827 cells.
Method: as §7
A further experiment concerns A431 cells (WT EGFR). Briefly: Cell proliferation (CellTiter Glo), A431 cells.
[5] abbreviates: proliferation GI50 WT EGFR / H1975.
[6] abbreviates: proliferation GI50 WT EGFR / HCC827.

pEC50, pIC50: −log10 of the molar value. Where two headings read alike, the source gives them in different places.

For the compound `C=CC(=O)Nc1cccc(Nc2nc(Nc3ccc(N4CCOCC4)cc3OC)ncc2C(F)(F)F)c1` [Compound I-2, N-(3-(2-(2-methoxy-4-morpholinophenylamino)-5-(trifluoromethyl)pyrimidin-4-ylamino)phenyl)acrylamide], at EGFR (WT), the pIC50 is 7.52 to 8.00. The pEC50 at WT EGFR (A431 cells) was less than 6.00; in experiment [1] (H1975 cells, 1 hr treatment, phospho-EGFR (Y1068)), 7.00 to 8.00. The “Ratio WT/mutant (H1975)” value in experiment [1] (signaling EC50 WT EGFR / H1975) was more than 50; in experiment [3] (setting [5]) it was more than 20. Besides, the “activity restored by new protein synthesis” value in experiment [2] is 40-60%. The “% Tumor inhibition” value in the experiment with H1975 tumor was more than 66%. Besides, the “Ratio WT/mutant (HCC827)” value in experiment [4] (setting [6]) was more than 40.

With `C=CC(=O)Nc1cccc(Nc2nc(Nc3ccc(N4CCN(C(C)=O)CC4)cc3OC)ncc2C(F)(F)F)c1` [Compound I-4, N-(3-(2-(4-(4-acetylpiperazin-1-yl)-2-methoxyphenylamino)-5-(trifluoromethyl)pyrimidin-4-ylamino)phenyl)acrylamide], the “activity restored by new protein synthesis” value in experiment [2] is on record as 40-60%. Besides, in the experiment with H1975 tumor, the “% Tumor inhibition” value was more than 66%.

As for “N-(3-(5-chloro-2-(2-methoxy-4-morpholinophenylamino)pyrimidin-4-ylamino)phenyl)acrylamide [Compound I-15]”, the pIC50 at EGFR (WT) was 7.00 to 7.52. In addition, the GI50 in the experiment on A431 cells (WT EGFR) (read-out: WT EGFR GI50, A431 cells, 72 hr) is more than 1000 nM; in experiment [3] (read-out: H1975 GI50, H1975 cells, 72 hr), 500 to 1000 nM; in experiment [4] (read-out: HCC827 GI50, HCC827 cells, 72 hr), 100 to 500 nM. Further, the “Ratio WT/mutant (H1975)” value in experiment [3] (setting [5]) is more than 1. In experiment [4] (setting [6]), the “Ratio WT/mutant (HCC827)” value is on record as more than 10.

Regarding `C=CC(=O)Nc1cccc(Oc2nc(Nc3ccc(N4CCN(C(C)=O)CC4)cc3OC)ncc2C(F)(F)F)c1` [Compound I-10, N-(3-(2-(4-(4-acetylpiperazin-1-yl)-2-methoxyphenylamino)-5-(trifluoromethyl)pyrimidin-4-yloxy)phenyl)acrylamide], the negative-log IC50 (pIC50) at EGFR (WT) is 8.00 to 9.00. In addition, the GI50 is more than 1000 nM in the experiment on A431 cells (WT EGFR) (Homo sapiens, A-431, 72 h, read-out: WT EGFR GI50 (nM)); 500 to 1000 nM in experiment [3] (Homo sapiens, NCI-H1975, 72 h, read-out: H1975 GI50 (nM)); 100 to 500 nM in experiment [4] (Homo sapiens, HCC827, 72 h, read-out: HCC827 GI50 (nM)). Also, the “Ratio WT/mutant (H1975)” value in experiment [3] is reported as more than 1. In addition, in experiment [4], the “Ratio WT/mutant (HCC827)” value is more than 20.
